Experimental data: US8372420B2, “Compositions and methods for coating medical implants” (Angiotech International AG, priority 2002, dated 2013)

How the values were obtained:
Assay type in all cases: cell-based
[1] = system: organisms known to cause vascular access catheter-related infections; experiment: Antibacterial activity of anticancer agents
[2] = system: S. epidermidis C621; experiment: MIC determination by microtitre broth dilution; conditions: S. epidermidis C621, wt, Gram+; Mueller Hinton broth, 37° C., 24 h
Description: (§1) A. MIC assay of various gram negative and positive bacteria MIC assays were conducted essentially as described by Amsterdam, D. 1996. Susceptibility testing of antimicrobials in liquid media, p. 52-111. In Loman, V., ed. Antibiotics in laboratory medicine, 4th ed. Williams and Wilkins, Baltimore, Md.

[3] = system: P. aeruginosa PAE/K799 H187; experiment: MIC determination by microtitre broth dilution; conditions: for Minimum Inhibitory Concentrations: P. aeruginosa PAE/K799 H187, wt, Gram−, Mueller Hinton broth, 37° C., 24 h
Description: as §1

[4] = system: S. pyogenes C721; experiment: MIC determination by microtitre broth dilution; conditions: S. pyogenes C721, wt, Gram+; Todd Hewitt broth, 37° C., 24 h
Description: as §1

[5] = system: E. coli UB1005 C498; experiment: MIC determination by microtitre broth dilution; conditions: for Minimum Inhibitory Concentrations: E. coli UB1005 C498, wt, Gram−, Mueller Hinton broth, 37° C., 24 h
Description: as §1

[6] = system: K. pneumoniae ATCC13883 C238; experiment: MIC determination by microtitre broth dilution; conditions: for Minimum Inhibitory Concentrations: K. pneumoniae ATCC13883 C238, wt, Gram−, Mueller Hinton broth, 37° C., 24 h
Description: as §1

[7] = system: S. aureus ATCC25923 C622; experiment: MIC determination by microtitre broth dilution; conditions: S. aureus ATCC25923 C622, wt, Gram+; Mueller Hinton broth, 37° C., 24 h
Description: as §1

Sc1ncc2[nH]cnc2n1 [2-mercaptopurine]
antibacterial activity against the organisms known to cause vascular access catheter-related infections [1]: did not have antibacterial activity | Minimum Inhibitory Concentrations [2]: N | Minimum Inhibitory Concentrations [3]: N | Minimum Inhibitory Concentrations [4]: N | Minimum Inhibitory Concentrations [5]: N | Minimum Inhibitory Concentrations [6]: N | Minimum Inhibitory Concentrations [7]: N

O=c1[nH]cc(F)c(=O)[nH]1 [5-fluorouracil, 5-Fluorouracil]
Minimum Inhibitory Concentrations [2]: 10^−7 Molar | activity against Pseudomonas aeruginosa [3]: have activity | Minimum Inhibitory Concentrations [3]: 10^−5 Molar | Minimum Inhibitory Concentrations [4]: 10^−4 Molar | activity against Escheridia coli [5]: have activity | Minimum Inhibitory Concentrations [5]: 10^−6 Molar | Minimum Inhibitory Concentrations [6]: 10^−6 Molar | Minimum Inhibitory Concentrations [7]: 10^−7 Molar

Sc1ncnc2nc[nH]c12 [6-mercaptopurine]
antibacterial activity against the organisms known to cause vascular access catheter-related infections [1]: did not have antibacterial activity | Minimum Inhibitory Concentrations [2]: N | Minimum Inhibitory Concentrations [3]: N | Minimum Inhibitory Concentrations [4]: N | Minimum Inhibitory Concentrations [5]: N | Minimum Inhibitory Concentrations [6]: N | Minimum Inhibitory Concentrations [7]: N

Nc1ccn([C@@H]2O[C@H](CO)[C@@H](O)[C@@H]2O)c(=O)n1 [Cytarabine]
antibacterial activity against the organisms known to cause vascular access catheter-related infections [1]: did not have antibacterial activity | Minimum Inhibitory Concentrations [2]: N | Minimum Inhibitory Concentrations [3]: N | Minimum Inhibitory Concentrations [4]: N | Minimum Inhibitory Concentrations [5]: N | Minimum Inhibitory Concentrations [6]: N | Minimum Inhibitory Concentrations [7]: N

CC[C@@]1(O)C(=O)OCc2c1cc1n(c2=O)Cc2cc3ccccc3nc2-1 [camptothecin, Camptothecin]
antibacterial activity against the organisms known to cause vascular access catheter-related infections [1]: did not have antibacterial activity | Minimum Inhibitory Concentrations [2]: 10^−4 Molar | Minimum Inhibitory Concentrations [3]: N | Minimum Inhibitory Concentrations [4]: N | Minimum Inhibitory Concentrations [5]: N | Minimum Inhibitory Concentrations [6]: N | Minimum Inhibitory Concentrations [7]: N

COc1cccc2c1C(=O)c1c(O)c3c(c(O)c1C2=O)C[C@@](O)(C(=O)CO)C[C@@H]3O[C@H]1C[C@H](N)[C@H](O)[C@H](C)O1 [doxorubicin, Doxorubicin]
Minimum Inhibitory Concentrations [2]: 10^−6 Molar | activity against Pseudomonas aeruginosa [3]: have activity | Minimum Inhibitory Concentrations [3]: 10^−5 Molar | Minimum Inhibitory Concentrations [4]: 10^−7 Molar | activity against Escheridia coli [5]: have activity | Minimum Inhibitory Concentrations [5]: 10^−4 Molar | Minimum Inhibitory Concentrations [6]: 10^−6 Molar | Minimum Inhibitory Concentrations [7]: 10^−5 Molar

COc1cc([C@@H]2c3cc4c(cc3[C@@H](O[C@@H]3O[C@@H]5CO[C@@H](C)O[C@H]5[C@H](O)[C@H]3O)[C@H]3COC(=O)[C@H]23)OCO4)cc(OC)c1O [etoposide, Etoposide]
Minimum Inhibitory Concentrations [2]: 10^−6 Molar | Minimum Inhibitory Concentrations [3]: N | Minimum Inhibitory Concentrations [4]: 10^−5 Molar | Minimum Inhibitory Concentrations [5]: N | Minimum Inhibitory Concentrations [6]: 10^−5 Molar | Minimum Inhibitory Concentrations [7]: 10^−5 Molar

NC(=O)NO [hydroxyurea]
antibacterial activity against the organisms known to cause vascular access catheter-related infections [1]: did not have antibacterial activity | Minimum Inhibitory Concentrations [2]: N | activity against Pseudomonas aeruginosa [3]: some activity | Minimum Inhibitory Concentrations [3]: 10^−4 Molar | Minimum Inhibitory Concentrations [4]: 10^−4 Molar | Minimum Inhibitory Concentrations [5]: N | Minimum Inhibitory Concentrations [6]: N | Minimum Inhibitory Concentrations [7]: N

CN(Cc1cnc2nc(N)nc(N)c2n1)c1ccc(C(=O)N[C@@H](CCC(=O)O)C(=O)O)cc1 [methotrexate, Methotrexate]
Minimum Inhibitory Concentrations [2]: N | Minimum Inhibitory Concentrations [3]: N | Minimum Inhibitory Concentrations [4]: 10^−6 Molar | Minimum Inhibitory Concentrations [5]: N | activity against Klebsiella pneumoniae [6]: activity | Minimum Inhibitory Concentrations [6]: 10^−6 Molar | Minimum Inhibitory Concentrations [7]: 10^−5 Molar

O=C1c2c(O)ccc(O)c2C(=O)c2c(NCCNCCO)ccc(NCCNCCO)c21 [mitoxantrone, Mitoxantrone]
Minimum Inhibitory Concentrations [2]: 10^−5 Molar | activity against Pseudomonas aeruginosa [3]: have activity | Minimum Inhibitory Concentrations [3]: 10^−5 Molar | Minimum Inhibitory Concentrations [4]: 10^−6 Molar | activity against Escheridia coli [5]: have activity | Minimum Inhibitory Concentrations [5]: 10^−5 Molar | Minimum Inhibitory Concentrations [6]: 10^−6 Molar | Minimum Inhibitory Concentrations [7]: 10^−5 Molar

CC(=O)O[C@H]1C(=O)[C@@]2(C)[C@H]([C@H](OC(=O)c3ccccc3)[C@]3(O)C[C@H](OC(=O)[C@H](O)[C@@H](NC(=O)c4ccccc4)c4ccccc4)C(C)=C1C3(C)C)[C@]1(OC(C)=O)CO[C@@H]1C[C@@H]2O [paclitaxel]
antibacterial activity against the organisms known to cause vascular access catheter-related infections [1]: did not have antibacterial activity

Nc1ncnc2c1ccn2[C@@H]1O[C@H](CO)[C@@H](O)[C@H]1O [tubercidin]
antibacterial activity against the organisms known to cause vascular access catheter-related infections [1]: did not have antibacterial activity | Minimum Inhibitory Concentrations [2]: N | Minimum Inhibitory Concentrations [3]: N | Minimum Inhibitory Concentrations [4]: N | Minimum Inhibitory Concentrations [5]: N | Minimum Inhibitory Concentrations [6]: N | Minimum Inhibitory Concentrations [7]: N

Cisplatin
antibacterial activity against the organisms known to cause vascular access catheter-related infections [1]: did not have antibacterial activity | Minimum Inhibitory Concentrations [2]: N | activity against Pseudomonas aeruginosa [3]: some activity | Minimum Inhibitory Concentrations [3]: 10^−4 Molar | Minimum Inhibitory Concentrations [4]: N | Minimum Inhibitory Concentrations [5]: N | Minimum Inhibitory Concentrations [6]: N | Minimum Inhibitory Concentrations [7]: N
